Patent publication US5214047A, “Tetracyclic quinazoline derivatives, effective as antiarrythmic agents” (priority 1987, dated 1993)

System: QT interval
Experiment: QT interval prolongation (ECG, class III action) in anesthetized guinea pigs
Format: in vivo, Pirbright white guinea pigs
Conditions: Cavia porcellus; guinea pigs, urethane anesthesia, intravenous; dose for 20% QT prolongation calculated from log dose (mg/kg) vs relative QT prolongation; read-out: Prolongation of the QT interval ED20%
Description: The action of the novel substances has been tested as follows:
The experimental animals used were male and female Pirbright white guinea pigs weighing 300-500 g. 1.5 g/kg urethane i.p. were used for anesthesia. The substances were administered intravenously. The extremity lead II was recorded to measure the ECG conduction times and the heart rate. The measured variables were the QT and PQ intervals and the heart rate. 4-6 animals were used for each dose. The criterion for a class III action was an increase in the QT interval compared with the values before administration of the substance. A PQ increase and a large decrease in the heart rate were used as exclusion criteria. The ED20% is calculated from the linear relation between log dose (mg/kg) of the substance and the relative prolongation of the QT interval (Δ%).

CC(C)NC[C@@H](O)c1ccc(NS(C)(=O)=O)cc1 [d-sotalol, reference compound]
ED (20%): 3.6 mg/kg
